In test [1] the test system is ds26 (DNA, duplex) CAATCGGATCGAATTCGATCCGATTG
Nature of the test: fluorescence enhancement. The note with it: K+ 60 mM; Tris-HCl pH 7.4; ligand 5 μM.

Test [2] has as its system telo21 (DNA, G4) GGGTTAGGGTTAGGGTTAGGG
Description: fluorescence titration. The note with it: K+ 60 mM; 10 mM Tris-HCl pH 7.4; ligand 5 μM.

Test [3] has as its system dA21 (DNA, single strand) AAAAAAAAAAAAAAAAAAAAA
Description: fluorescence enhancement. As to conditions: K+ 60 mM; Tris-HCl pH 7.4; ligand 5 μM.

As for `CN(C)c1ccc(/C=C/c2cccc(/C=C/c3ccc(N(C)C)cc3)[n+]2C)cc1`, the binding entry in test [1] and in test [3] was “weak” throughout. Also, the K in test [2] is on record as 1.44 ± 0.35 × 10^5 M^-1.
For `CSc1ccc(/C=C/c2cccc(/C=C/c3ccc(SC)cc3)[n+]2C)cc1`, in test [2], the K is on record as 1.18 ± 0.21 × 10^5 M^-1.

(Values after publication PMC9080739 (2018).)
